Columns and labels:
COX-1 = COX-1 (Homo sapiens, UniProt P23219); assay: In vitro cycloxygenase enzyme inhibition; assay type: biochemical; settings: treatment sample at pH 3.0
From the text: (§1) In vitro studies of the present invention and its key components have been conducted to assess the efficacy of the claimed compositions in inhibiting the cycloxygenase (COX) 1 and 2 enzymes. Said enzymes are adapted to convert arachidonic acid in cell membranes to prostaglandin, a messenger agent that conveys a signal to the cells to increase and enhance their inflammatory response. […] The results of this in vitro study have been documented in the below-listed chart.

COX-2 = molecular target: T1, COX-2 (Homo sapiens, UniProt P35354); assay: In vitro cycloxygenase enzyme inhibition; assay type: biochemical; settings: treatment sample at pH 3.0
T1 sequence (P35354 18-604): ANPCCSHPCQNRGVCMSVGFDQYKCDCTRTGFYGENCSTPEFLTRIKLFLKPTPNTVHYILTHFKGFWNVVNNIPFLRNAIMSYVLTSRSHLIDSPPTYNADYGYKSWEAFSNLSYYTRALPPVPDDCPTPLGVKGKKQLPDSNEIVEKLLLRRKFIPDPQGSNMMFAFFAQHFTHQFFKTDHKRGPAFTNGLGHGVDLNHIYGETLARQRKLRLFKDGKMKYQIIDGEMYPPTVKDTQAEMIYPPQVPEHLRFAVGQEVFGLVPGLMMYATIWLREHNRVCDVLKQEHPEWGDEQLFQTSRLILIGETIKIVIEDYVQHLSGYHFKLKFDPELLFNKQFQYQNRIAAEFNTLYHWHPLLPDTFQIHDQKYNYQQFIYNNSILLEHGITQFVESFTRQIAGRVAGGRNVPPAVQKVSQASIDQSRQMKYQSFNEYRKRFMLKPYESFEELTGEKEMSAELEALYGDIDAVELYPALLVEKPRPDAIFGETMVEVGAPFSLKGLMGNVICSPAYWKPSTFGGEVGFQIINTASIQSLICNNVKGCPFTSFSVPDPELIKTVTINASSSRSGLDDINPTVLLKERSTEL
From the text: as §1

COX-1, sequence (P23219 24-599): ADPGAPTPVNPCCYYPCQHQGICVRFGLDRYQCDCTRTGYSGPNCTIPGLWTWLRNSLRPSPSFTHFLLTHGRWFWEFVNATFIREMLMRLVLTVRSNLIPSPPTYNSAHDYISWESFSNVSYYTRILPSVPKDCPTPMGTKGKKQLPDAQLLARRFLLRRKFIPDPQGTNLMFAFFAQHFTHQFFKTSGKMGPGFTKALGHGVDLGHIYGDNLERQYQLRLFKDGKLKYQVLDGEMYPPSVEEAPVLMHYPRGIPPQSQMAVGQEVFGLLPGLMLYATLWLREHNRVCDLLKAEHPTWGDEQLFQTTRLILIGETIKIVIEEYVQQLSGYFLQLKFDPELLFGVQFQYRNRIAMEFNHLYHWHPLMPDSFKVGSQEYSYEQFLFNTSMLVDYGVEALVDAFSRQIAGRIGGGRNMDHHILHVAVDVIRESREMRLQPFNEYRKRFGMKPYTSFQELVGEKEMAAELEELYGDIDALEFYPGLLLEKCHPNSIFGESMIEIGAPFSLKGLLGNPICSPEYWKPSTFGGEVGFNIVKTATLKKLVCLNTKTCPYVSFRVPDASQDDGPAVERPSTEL

Row | % of Initial Enzyme Activity COX-1 (COX-1) | % of Initial Enzyme Activity COX-2 (COX-2) | Compound
1 | 55% | 95% | Octyl Glyceryl Sulfonate
2 | 94% | 100% | O=C(O)CC(O)(CC(=O)O)C(=O)O [C, Citric Acid]
3 | 100% | 92% | O=C1CC[C@@H](C(=O)O)N1 [B, Pyroglutamic Acid]
